This assay concerns the target T1, RmuAP1 (Rhodotorula mucilaginosa, UniProt A0A9P6W3R0).
T1 construct: gene PEP1_2; mature catalytic domain (printed as 300 residues, though residue Ile304 is named), pre- and propeptide removed, C-terminal His6; secreted by Yarrowia lipolytica Po1g
T1 sequence (A0A9P6W3R0 96-425): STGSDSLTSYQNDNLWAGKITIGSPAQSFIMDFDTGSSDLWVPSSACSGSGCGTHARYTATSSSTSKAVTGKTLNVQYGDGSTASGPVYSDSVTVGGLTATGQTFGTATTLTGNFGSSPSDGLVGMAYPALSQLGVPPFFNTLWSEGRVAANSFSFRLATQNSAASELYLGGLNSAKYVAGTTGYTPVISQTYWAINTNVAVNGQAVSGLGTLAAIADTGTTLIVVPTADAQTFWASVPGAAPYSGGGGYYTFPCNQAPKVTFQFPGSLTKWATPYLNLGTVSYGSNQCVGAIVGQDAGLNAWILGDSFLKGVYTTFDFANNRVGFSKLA
Put plainly: X-ray crystal structure of the complex, […] Å. It counts as binding. Conditions: crystallised at pH 6.5, 2 M NaCl, 20 °C; active-site cleft, subsites S4 to S2'.

Non-standard residues stand in square brackets, D forms with d. Residues, ends and D or L forms follow the SMILES beside them. *: point of attachment. Sta = CC(C)C[C@H](N)[C@@H](O)CC(=O)O; Isovaleryl = CC(C)CC(=O)*

Take `CC(C)CC(=O)N[C@H](C(=O)N[C@H](C(=O)N[C@@H](CC(C)C)[C@@H](O)CC(=O)N[C@@H](C)C(=O)N[C@@H](CC(C)C)[C@@H](O)CC(=O)O)C(C)C)C(C)C` [pepstatin A] (Isovaleryl-VV[Sta]A[Sta]-OH): the “X-ray crystal structure of the complex, 1.78 Å” value is reported as “The crystal structure of the RmuAP1 complexed with pepstatin A was determined”.
